One series deals with CD8+ T cells. The series is described as follows: Mouse T cell proliferation assay (Cell Trace Violet, 7AAD, flow cytometry). The series is classed as cell-based. The note with it: 3 days. As for the experimental part:
Spleens, inguinal and brachial lymph nodes were harvested from two C57BL/6 mice in sterile conditions and placed in sterile Phosphate Buffered Saline (PBS), then cells were dissociated into a single cell suspension by gently crushing all organs through a 70 μm cell strainer. Cells were washed through the strainer into a 50 mL falcon tube with 5 mL sterile ACK lysis buffer (0.15 M NH4Cl, 1 mM KHCO3 pH 7.3). Cells were incubated for 3 min at room temperature to lyse red blood cells. 5 mL sterile PBS was added to the cell suspension and cells were centrifuged at 350 g for 10 min at room temperature. Supernatant was removed and the cell pellet resuspended in 10 mL sterile PBS. Cells were centrifuged again at 350 g for 10 min at room temperature. The supernatant was removed and the cells were resuspended in 1 mL of sterile PBS.
1 μμL of 5 mM CellTrace Violet (Thermo Fisher) was added to the cell suspension and the mixture was swirled to ensure even dispersion of the dye. Cells were incubated for 20 min in the dark at room temperature. 5 mL of pre-warmed complete RPMI medium [(RPMI 1640 (Gibco), 10% heat inactivated FBS (Gibco), 1× Penicillin/Streptomycin/L-Glutamine, 100 μM 2-Mercaptoethanol] was added to the cell suspension and incubated in the dark at room temperature for 5 min. Cells were centrifuged at 350 g for 5 min at room temperature. Supernatant was removed without disrupting the cell pellet. Cells were resuspended in 1 mL complete RPMI medium.
Cells were counted using a haemocytometer and cells were adjusted to 2×10^6 cells/mL using complete RPMI medium. 500 μL of cell suspension was added to wells in a 48-well plate (Nunc) so the final number of cells per well was 1×10^6.
A vial of Dynabeads Mouse T Activator CD3/CD28 beads (4×10^7 beads/mL) was vortexed for 30 sec and 625 μL of beads was aliquoted into a 5 mL polypropylene FACS tube (Sarstedt). 1 mL of complete RPMI medium was added to the beads and mixed by pipetting. The FACS tube was placed in a StemCell Technologies EasySep magnet for 1 minute and supernatant was discarded. The tube was removed from the magnet and washed beads were resuspended in 625 μL of complete RPMI medium. 12.5 μL of bead suspension (5×10^5 beads) was added into appropriate wells of the 48-well plate with cell suspensions to induce T cell activation.
Cells were incubated in a humidified incubator at 37° C. with 5% CO2 for 1 hour before Compound 1 (or vehicle only) was diluted in complete RPMI medium and added to the appropriate wells at the concentration required. The final volume in all wells was 1 mL. Cells were incubated for 3 days in a humidified incubator at 37° C. with 5% CO2.
Cells were harvested from each well by resuspending cells with a pipette and transferring to polypropylene FACS tubes. […]
For orientation: Flow cytometry measures light scatter and fluorescence of single cells or particles in a stream.

The next series has as its system T lymphocytes. The conditions noted are these: cited from earlier work.

Entries after “also recorded” stand apart in the source; their conditions may differ.

On to `C=CC[C@@H]1/C=C(\C)C[C@H](C)C[C@H](OC)[C@H]2O[C@@](O)(C(=O)C(=O)N3CCCC[C@H]3C(=O)O[C@H](/C(C)=C/[C@@H]3CC[C@@H](O)[C@H](OC)C3)[C@H](C)[C@@H](O)CC1=O)[C@H](C)C[C@@H]2OC` [tacrolimus, reference compound], for which the “CD8+ T cell proliferation compared to the vehicle control” value in the series on CD8+ T cells (0.6 ng/mL tacrolimus, CD3/CD28 beads) is on record as “inhibited”. The “inhibition of T cell proliferation” value with T lymphocytes (tacrolimus 1.2 nM) was 100%.

`CC[C@@H]1/C=C(\C)[C@@H](O)[C@H](C)C[C@H](OC)[C@H]2O[C@@](O)(C(=O)C(=O)N3CCCC[C@H]3C(=O)O[C@H](/C(C)=C/[C@@H]3CC[C@@H](O)[C@H](OC)C3)[C@H](C)[C@@H](O)CC1=O)[C@H](C)C[C@@H]2OC` [Compound 1, 17-Ethyl-1,14,20-trihydroxy-12-[2′-(4″-hydroxy-3″-methoxycyclohexyl)-1′-methylvinyl]-23,25-dimethoxy-13,19,21,27-tetramethyl-11,28-dioxa-4-azatricyclo-[22.3.1.0^4,9]octacos-18-ene-2,3,10,16-tetraone]: the “rescue of CD8+ T cell proliferation in the presence of tacrolimus” value in the series with CD8+ T cells (0.3 μM, 1 μM and 3 μM Compound 1 with 0.6 ng/mL tacrolimus) is “dose dependent rescue; also recorded: dose dependently and significantly rescued”. In the series on CD8+ T cells (Compound 1 0.3-3 μM, no tacrolimus, 7AAD), the “effect on CD8+ T cell viability in the absence of tacrolimus” value is “no significant effect”. In addition, the “effect on CD8+ T cell proliferation in the absence of tacrolimus” value in the series with CD8+ T cells (Compound 1 0.3-3 μM, no tacrolimus) is “no significant effect”. Besides, in the series on T lymphocytes (cultured with tacrolimus 1.2 nM, C57B1/6 mouse spleen T lymphocytes, read-out: ED50, concentration required to inhibit tritiated thymidine uptake of T cells by 50%), the EC50 was less than 50 µM.

The record behind these values is patent publication US20230218589A1, “COMPOUND FOR PREVENTION OR TREATMENT OF A SKIN CANCER OR SKIN PRECANCER” (UNIQUEST PTY LTD, priority 2020, published 2023).
